Patent publication US6413974B1, “6,9,-disubstituted 2-[trans-(4-aminocyclohexyl) amino] purines” (Aventis Pharmaceuticals Inc., priority 1998, dated 2002)
Where “and” joins values, the source holds several entries; their conditions need not be identical. Equal values may be shown once. Where a name gives a salt, the structure may show the parent alone. Read-outs that look alike come from different tables or passages of the source.

Key:
cdk4/cyclin D1 = target: T1, cdk4/cyclin D1 (Homo sapiens, UniProt P11802); experiment: Cyclin-dependent kinase 4 Assay; format: biochemical; conditions: cdk4/cyclin D1, GST-Rb substrate, 10 μM ATP, 30 min at 37° C.; read-out: CDK4 Inhibition IC50
T1 construct: made in house; host or cells: Sf9 insect cells (Bac-to-Bac baculovirus, pFastBac)
Description: The IC50 values for cdk-4 inhibition were by the following method:
(§1) The transformed bacteria were grown overnight to saturation, then diluted in YT broth and incubated at 37° C. for 2 h. The protein was induced by incubation with 0.1 mM isopropylthioglycoside for 3 h. Following sedimentation by centrifugation, the cells were lysed by sonication in STE buffer ([…] NaCl, 10 mM Tris, pH 8.0, 1 mM EDTA) containing 10% sarkosyl. Particulate matter was removed by centrifugation and the lysate was incubated with glutathione-Sepharose at 4° C. The beads were washed with kinase buffer and then quantitation of Coomassie blue-stained proteins separated by SDS-PAGE was performed using a protein standard of known concentration.
The cDNA for human cyclin D1 was cloned by RT PCR using […] from MCF-7 cells. […] Bacmid DNA was used to transfect Sf9 insect cells to produce recombinant virus. Following plaque purification of the virus, the viral preparations were amplified until high titer stocks were acheived.
Lysates were prepared by lysis of Sf9 cells coinfected with cdk4 and cyclin D1 in 50 mM HEPES, pH 7.5, 10 mM MgCl2, 1 mM DTT, 0.1 mM phenylmethylsulfonyl fluoride, 5 μg/ml aprotinin, and 5 μg/ml leupeptin using a PARR bomb under 500 p.s.i nitrogen pressure for 5 min at 4° C. Insoluble material was sedimented at 10,000×g for 20 min at 4° C. Glycerol was added to the supernatant to 10% and stored at −80° C. in aliquots.
(§2) Pre-wet Millipore Multiscreen 96-well filter plates (0.65 μm Durapore filters) with 200 μl kinase buffer (50 mM HEPES, pH 7.5, 10 mM MgCl2, 1 mM EGTA). GST-Rb (0.5 μg) bound to glutathione-Sepharose beads is added in 50 μl per well and the solution removed by application of vacuum. […] Add 0.1 μg cdk4/cyclin D1 (insect cell lysate) to initiate assay. Incubate 30 min at 37° C. Terminate reaction by filtration on Millipore Vacuum Manifold. Wash four times with TNEN (20 mM Tris, pH 8.0, 100 mM Na Cl, 1 mM EDTA, 0.5% nonidet P-40). After drying the plates at room temperature, the filter plates were placed in adapter plates (Packard) and 40 μl of Microscint-O® (Packard) was added to each well. Top Seal A film was used to cover the plates before counting in a Top Count Scintillation Counter.

cdk2/cyclin E = target: T2, cdk2/cyclin E (Homo sapiens, UniProt P24941); experiment: Cyclin-Dependent Kinase 2 Assay (cdk-2 inhibition); format: biochemical; conditions: GST-Rb substrate, 30 min at 30° C.
T2 construct: made in house; host or cells: insect cells (baculovirus co-infection)
Description: as §1, §2
GST-Rb as described above for cdk4/cyclin D1
Assay conditions for cdk2/cyclin E were identical to those for cdk4/cyclin D1 including the substrate. The concentration of recombinant cdk2/cyclin E in the assay was 0.1 μg per 100 μl assay. Incubation was for 30 min at 30° C.

A549 = experiment: In vitro tumor cell proliferation, A549; format: cell-based, human; conditions: read-out: In vitro Tumor Cell Proliferation (IC50, μM) Lung A549
Description: (§3) The proliferation of tumor cells was measured using a sulforhodamine B assay as described in Skehan, P., et al., J. Natl. Cancer Inst. […] Tumor cells were harvested with trypsin-EDTA, cells that excluded trypan blue were counted, added to 96-well plates and incubated overnight at 37° C. Drug was added to the wells following dilution in culture medium. Three days later, the medium was removed and replenished with medium containing fresh drug and incubated an additional 4 days. The cells were then fixed with 0.1 ml 10% trichloroacetic acid for 60 min at 4° C. The plates were rinsed five times with tap water, air-dried and stained for 30 min with 0.4% sulforhodamine B in 1% acetic acid and air-dried.
(§4) Alternatively, the CyQUANT cell proliferation assay was used to quantify tumor cell proliferation. Tumor cells were harvested with trypsin-EDTA, cells that excluded trypan blue were counted, added to 96-well plates and incubated overnight at 37° C. Drug was added to the wells following dilution in culture medium. Three days later the medium was removed and the plates frozen at −80° C. for at least 30 minutes.

DU 145 = experiment: In vitro tumor cell proliferation, DU 145; format: cell-based, human; conditions: read-out: In vitro Tumor Cell Proliferation (IC50, μM) Prostate DUI45
Description: as §3, §4

PC-3 = experiment: In vitro tumor cell proliferation, PC-3; format: cell-based, human; conditions: read-out: In vitro Tumor Cell Proliferation (IC50, μM) Prostate PC-3
Description: as §3, §4

DMS-114 = experiment: In vitro tumor cell proliferation, DMS-114; format: cell-based, human; conditions: read-out: In vitro Tumor Cell Proliferation (IC50, μM) Lung DMS-114
Description: as §3, §4

HT-29 = experiment: In vitro tumor cell proliferation, HT-29; format: cell-based, human; conditions: read-out: In vitro Tumor Cell Proliferation (IC50, μM) Colon HT-29 (converted)
Description: as §3, §4
HT-29 is a human colon adenocarcinoma, moderately well-differentiated grade II (HTB 38);

MDA-MB-231 = experiment: In vitro tumor cell proliferation, MDA-MB-231; format: cell-based, human; conditions: read-out: In vitro Tumor Cell Proliferation (IC50, μM) Breast MDA-MB-231
Description: as §3, §4

Colo-205 = experiment: In vitro tumor cell proliferation, Colo-205; format: cell-based, human; conditions: read-out: In vitro Tumor Cell Proliferation (IC50, μM) Colon Colo-205
Description: as §3, §4

MDA-MB-435 = experiment: In vitro tumor cell proliferation, MDA-MB-435; format: cell-based, human; conditions: read-out: In vitro Tumor Cell Proliferation (IC50, μM) Breast MDA-MB-435
Description: as §3, §4

[1] = Homo sapiens, A549, values marked * (mark not explained)
[2] = Homo sapiens, DU-145, values marked * (mark not explained)
[3] = Homo sapiens, PC-3, values marked * (mark not explained)
[4] = Homo sapiens, DMS-114, values marked * (mark not explained)
[5] = Homo sapiens, HT-29, values marked * (mark not explained)
[6] = Homo sapiens, MDA-MB-231, values marked * (mark not explained)
[7] = Homo sapiens, COLO 205, values marked * (mark not explained)
[8] = values marked * (mark not explained), dihydrochloride
[9] = values marked * (mark not explained), trihydrochloride
[10] = values without *, dihydrochloride

T1 sequence (P11802 whole entry): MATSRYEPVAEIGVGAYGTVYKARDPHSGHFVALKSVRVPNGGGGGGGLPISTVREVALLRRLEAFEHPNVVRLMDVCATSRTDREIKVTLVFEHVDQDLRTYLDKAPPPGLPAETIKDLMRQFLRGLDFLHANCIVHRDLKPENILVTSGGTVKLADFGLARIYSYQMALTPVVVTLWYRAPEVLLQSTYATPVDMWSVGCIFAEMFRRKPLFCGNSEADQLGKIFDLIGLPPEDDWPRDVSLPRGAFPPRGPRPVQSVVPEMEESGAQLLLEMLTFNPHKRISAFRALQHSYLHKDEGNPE
T1 sequence (P24385 whole entry partner): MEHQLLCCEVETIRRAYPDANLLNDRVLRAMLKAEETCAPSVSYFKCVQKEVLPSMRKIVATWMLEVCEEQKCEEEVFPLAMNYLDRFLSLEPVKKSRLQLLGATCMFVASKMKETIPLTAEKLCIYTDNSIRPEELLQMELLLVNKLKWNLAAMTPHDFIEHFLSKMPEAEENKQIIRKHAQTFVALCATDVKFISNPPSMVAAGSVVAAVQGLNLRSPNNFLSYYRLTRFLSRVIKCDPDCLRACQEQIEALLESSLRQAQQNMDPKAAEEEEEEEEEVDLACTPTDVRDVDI

N[C@H]1CC[C@H](Nc2nc(NCCc3ccc4c(c3)OCO4)c3ncn(C4CCCC4)c3n2)CC1 [Example 4, 2-[Trans-(4-aminocyclohexyl)amino]-6-[2-(3,4-methylenedioxyphenyl)ethylamino]-9-cyclopentylpurine dihydrochloride]
IC50 (cdk4/cyclin D1): > 100 µM | IC50 (cdk2/cyclin E): 5.1 µM

CC(C)n1cnc2c(NCc3cccc(Cl)c3)nc(N[C@H]3CC[C@H](N)CC3)nc21 [Example 15, 2-[Trans-(4-aminocyclohexyl)amino]-6-[(3-chloro)benzylamino]-9-(2-propyl)purine dihydrochloride]
IC50 (A549; [1]): 1.4 µM | IC50 (DU 145; [2]): 2.8 µM | IC50 (PC-3; [3]): 2.3 µM | IC50 (DMS-114; [4]): 1.3 µM | IC50 (HT-29; [5]): 2.7 µM | IC50 (MDA-MB-231; [6]): 3 µM | IC50 (Colo-205; [7]): 2.4 µM | IC50 (cdk4/cyclin D1): 1.5 µM | IC50 (cdk2/cyclin E): 0.1 µM

CC(C)n1cnc2c(NCc3cccc(I)c3)nc(N[C@H]3CC[C@H](N)CC3)nc21 [Example 51, 2-[Trans-(4-aminocyclohexyl)amino]-6-[(3-iodobenzyl)amino]-9-(2-propyl)purine dihydrochloride]
IC50 (cdk4/cyclin D1): 2.1 µM | IC50 (cdk2/cyclin E): 0.78 µM

C[C@H](Nc1nc(N[C@H]2CC[C@H](N)CC2)nc2c1ncn2C1CCCC1)c1ccccc1 [Example 6, (S)-2-[Trans-(4-aminocyclohexyl)amino]-6-[(α-methylbenzyl)amino]-9-cyclopentylpurine dihydrochloride]
IC50 (cdk4/cyclin D1): > 100 µM | IC50 (cdk2/cyclin E): 2.6 µM

CCNc1nc(N[C@H]2CC[C@H](N)CC2)nc2c1ncn2C1CCCC1 [Example 33, 2-[Trans-(4-aminocyclohexyl)amino]-6-(ethylamino)-9-cyclopentylpurine dihydrochloride]
IC50 (A549; [1]): 1.2 µM | IC50 (A549; [8]): 1.8 µM | IC50 (DU 145; [2]): 0.8 µM | IC50 (PC-3; [3]): 0.9 µM | IC50 (PC-3; [8]): 1 µM | IC50 (DMS-114; [4]): 0.7 µM | IC50 (DMS-114; [8]): 0.9 µM | IC50 (HT-29; [5]): 1.5 µM | IC50 (HT-29; [8]): 2.1 µM | IC50 (Colo-205; [7]): 2.1 µM | IC50 (cdk4/cyclin D1): 0.18 µM | IC50 (cdk2/cyclin E): 0.014 µM and 0.026 µM and 0.006 µM

N[C@H]1CC[C@H](Nc2nc(NCCN3CCOCC3)c3ncn(C4CCCC4)c3n2)CC1 [Example 13, 2-[Trans-(4-aminocyclohexyl)amino]-6-[2-(4-morpholinyl)ethylamino]-9-cyclopentylpurine trihydrochloride]
IC50 (A549; [1]): 7.9 µM | IC50 (A549; [9]): 6.9 µM | IC50 (DU 145; [2]): 6.7 µM | IC50 (DU 145; [9]): 7.5 µM | IC50 (PC-3; [3]): 7.2 µM | IC50 (PC-3; [9]): 6.4 µM | IC50 (DMS-114; [4]): 8.8 µM | IC50 (DMS-114; [9]): 6.2 µM | IC50 (HT-29; [5]): 11 µM | IC50 (MDA-MB-231; [6]): 4.8 µM | IC50 (MDA-MB-231; [9]): 9.4 µM | IC50 (Colo-205; [7]): 5.3 µM | IC50 (Colo-205; [9]): 5.2 µM | IC50 (cdk4/cyclin D1): 3.2 µM and 4.2 µM | IC50 (cdk2/cyclin E): 0.11 µM

N[C@H]1CC[C@H](Nc2nc(NCc3ccccc3F)c3ncn(C4CCCC4)c3n2)CC1 [Example 42, 2-[Trans-(4-aminocyclohexyl)amino]-6-[(2-fluorobenzyl)amino]-9-cyclopentylpurine dihydrochloride]
IC50 (A549; Homo sapiens, A549, values without *): 7.1 µM | IC50 (DU 145; Homo sapiens, DU-145, values without *): 7.3 µM | IC50 (PC-3; Homo sapiens, PC-3, values without *): 8.8 µM | IC50 (PC-3; [10]): 7.1 µM | IC50 (DMS-114; Homo sapiens, DMS-114, values without *): 10 µM | IC50 (DMS-114; [10]): 5.1 µM | IC50 (HT-29; Homo sapiens, HT-29, values without *): 15 µM | IC50 (MDA-MB-231; Homo sapiens, MDA-MB-231, values without *): 16 µM | IC50 (MDA-MB-231; [10]): 17 µM | IC50 (cdk4/cyclin D1): 1 µM and 6 µM | IC50 (cdk2/cyclin E): 0.42 µM

N[C@H]1CC[C@H](Nc2nc(NCc3ccccc3Cl)c3ncn(C4CCCC4)c3n2)CC1 [Example 18, 2-[Trans-(4-aminocyclohexyl)amino]-6-[(2-chlorobenzyl)amino]-9-cyclopentylpurine dihydrochloride]
IC50 (A549; [1]): 1.7 µM | IC50 (A549; [8]): 2.2 µM and 1.8 µM | IC50 (MDA-MB-435; Homo sapiens, MDA-MB-435, values marked * (mark not explained)): 8 µM | IC50 (MDA-MB-435; [8]): 8.2 µM | IC50 (HT-29; [5]): 2.4 µM | IC50 (HT-29; [8]): 2.5 µM and 4.1 µM | IC50 (cdk4/cyclin D1): 1.3 µM and 1 µM | IC50 (cdk2/cyclin E): 0.12 µM and 0.1 µM

N[C@H]1CC[C@H](Nc2nc(NCc3ccco3)c3ncn(C4CCCC4)c3n2)CC1 [Example 38, 2-[Trans-(4-aminocyclohexyl)amino]-6-(2-furanmethylamino)-9-cyclopentylpurine dihydrochloride]
IC50 (A549; [1]): 1.7 µM | IC50 (A549; [8]): 1.1 µM | IC50 (PC-3; [3]): 1.4 µM | IC50 (PC-3; [8]): 1.7 µM | IC50 (DMS-114; [4]): 1.2 µM | IC50 (HT-29; [5]): 2.1 µM | IC50 (HT-29; [8]): 3.6 µM | IC50 (Colo-205; [7]): 2.4 µM | IC50 (Colo-205; [8]): 2.8 µM | IC50 (cdk4/cyclin D1): 1.4 µM | IC50 (cdk2/cyclin E): 0.019 µM
